US20050186658A1, “Chimeric metabotropic glutamate receptors and uses thereof” (NPS Pharmaceuticals, Inc., priority 2003, published 2005)

What was measured:
CaSPhmGluR7(27-45) = target: T1, CaSPhmGluR7(27-45) (Homo sapiens, UniProt Q14831); assay: oocyte assay for Gαi-coupled receptors (GIRK1/GIRK4 co-injection, voltage clamp); assay type: cell-based; details: 100 uM L-glutamate; Xenopus oocytes; FIG. 4
T1 construct: human CaR signal peptide (first 27 amino acids of CaR), replacing mGluR7 residues 1-44 (N); expressed in transfected cells; host or cells: Xenopus laevis oocytes injected with in vitro transcribed RNA (co-injected with GIRK1 and GIRK4 RNA)
T1 sequence (Q14831 with tags, fused parts or gaps): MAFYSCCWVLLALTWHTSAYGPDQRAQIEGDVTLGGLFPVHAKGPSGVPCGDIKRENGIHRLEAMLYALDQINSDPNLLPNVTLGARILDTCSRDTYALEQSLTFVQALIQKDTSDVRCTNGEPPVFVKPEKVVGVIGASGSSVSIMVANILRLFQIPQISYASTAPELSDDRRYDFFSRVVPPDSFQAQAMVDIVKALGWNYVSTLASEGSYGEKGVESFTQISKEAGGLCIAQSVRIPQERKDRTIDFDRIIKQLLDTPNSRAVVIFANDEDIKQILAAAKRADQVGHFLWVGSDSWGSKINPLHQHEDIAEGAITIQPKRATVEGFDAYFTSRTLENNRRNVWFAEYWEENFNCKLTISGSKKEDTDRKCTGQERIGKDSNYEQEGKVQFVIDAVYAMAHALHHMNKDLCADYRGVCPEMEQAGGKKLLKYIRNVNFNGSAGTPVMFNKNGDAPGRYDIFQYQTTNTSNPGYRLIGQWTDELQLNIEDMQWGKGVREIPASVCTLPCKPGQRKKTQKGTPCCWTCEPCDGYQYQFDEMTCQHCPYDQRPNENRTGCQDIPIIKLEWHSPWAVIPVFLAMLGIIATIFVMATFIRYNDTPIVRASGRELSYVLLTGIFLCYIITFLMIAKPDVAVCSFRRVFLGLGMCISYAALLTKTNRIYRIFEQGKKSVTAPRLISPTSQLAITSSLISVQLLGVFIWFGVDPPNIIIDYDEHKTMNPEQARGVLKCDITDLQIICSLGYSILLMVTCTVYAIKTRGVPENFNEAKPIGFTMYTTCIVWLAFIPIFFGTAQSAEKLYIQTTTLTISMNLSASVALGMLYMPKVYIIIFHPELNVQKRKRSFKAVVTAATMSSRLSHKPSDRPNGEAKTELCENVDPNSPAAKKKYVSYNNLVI
Method: (§1) The ability of each Gαi-coupled mGlu or mGluR-CaR chimeric receptors to function was determined in Xenopus oocytes, with co-injection of the G-protein inward rectifying potassium channel subunits, GIRK 1 and GIRK4 (Kubo et al 1993 Nature 364: 802). Individual oocytes were injected with a mixture containing 5 ng receptor, 1.5 ng GIRK1 and 1.5 ng GIRK4. […] Further details can be found in Saugstad, et al., J. Neurosci. 1996 16:5979-5985. Application of glutamate evoked inward potassium currents in oocytes expressing both the chimeric receptors and the potassium channels, but not in oocytes expressing only the receptor or only the channel subunits.

CaSPhmGluR3(27-33) = target: T2, CaSPhmGluR3(27-33) (Homo sapiens, UniProt Q14832); assay: as above; assay type: cell-based; details: 100 uM L-glutamate; Xenopus oocytes; FIG. 5
T2 construct: CaR signal peptide (first 27 amino acids of CaR) (N); expressed in transfected cells; host or cells: Xenopus laevis oocytes injected with RNA (with GIRK1 and GIRK4 RNA)
T2 sequence (Q14832 with tags, fused parts or gaps): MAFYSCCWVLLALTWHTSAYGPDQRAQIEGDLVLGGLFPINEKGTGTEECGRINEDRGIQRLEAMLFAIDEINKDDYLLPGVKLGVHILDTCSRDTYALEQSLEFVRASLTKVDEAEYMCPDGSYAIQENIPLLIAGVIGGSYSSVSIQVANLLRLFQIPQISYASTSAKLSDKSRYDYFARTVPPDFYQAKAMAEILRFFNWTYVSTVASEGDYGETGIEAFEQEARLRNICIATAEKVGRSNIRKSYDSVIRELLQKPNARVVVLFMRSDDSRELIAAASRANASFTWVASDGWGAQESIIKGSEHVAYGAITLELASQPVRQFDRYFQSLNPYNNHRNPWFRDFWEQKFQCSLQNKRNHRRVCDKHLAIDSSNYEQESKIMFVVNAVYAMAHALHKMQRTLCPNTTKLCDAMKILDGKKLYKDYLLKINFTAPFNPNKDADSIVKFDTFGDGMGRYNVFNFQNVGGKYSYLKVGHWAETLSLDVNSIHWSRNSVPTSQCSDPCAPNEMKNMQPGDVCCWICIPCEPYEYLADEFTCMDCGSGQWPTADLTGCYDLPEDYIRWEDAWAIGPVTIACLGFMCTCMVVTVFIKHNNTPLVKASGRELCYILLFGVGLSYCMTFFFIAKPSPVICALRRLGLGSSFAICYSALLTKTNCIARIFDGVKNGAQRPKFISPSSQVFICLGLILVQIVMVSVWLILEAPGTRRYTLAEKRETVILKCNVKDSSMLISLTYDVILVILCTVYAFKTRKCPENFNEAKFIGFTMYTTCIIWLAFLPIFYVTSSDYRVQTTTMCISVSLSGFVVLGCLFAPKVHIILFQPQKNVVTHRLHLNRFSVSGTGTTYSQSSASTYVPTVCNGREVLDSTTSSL
Method: as §1

CaSPhmGluR6(27-35) = target: T3, CaSPhmGluR6(27-35) (Homo sapiens, UniProt O15303, Q59P); assay: as above; assay type: cell-based; details: 100 uM L-glutamate; Xenopus oocytes; FIG. 7
T3 construct: CaR signal peptide (first 27 amino acids of CaR) (N); expressed in transfected cells; host or cells: Xenopus laevis oocytes injected with RNA
T3 sequence (O15303 with tags, fused parts or gaps Q59P): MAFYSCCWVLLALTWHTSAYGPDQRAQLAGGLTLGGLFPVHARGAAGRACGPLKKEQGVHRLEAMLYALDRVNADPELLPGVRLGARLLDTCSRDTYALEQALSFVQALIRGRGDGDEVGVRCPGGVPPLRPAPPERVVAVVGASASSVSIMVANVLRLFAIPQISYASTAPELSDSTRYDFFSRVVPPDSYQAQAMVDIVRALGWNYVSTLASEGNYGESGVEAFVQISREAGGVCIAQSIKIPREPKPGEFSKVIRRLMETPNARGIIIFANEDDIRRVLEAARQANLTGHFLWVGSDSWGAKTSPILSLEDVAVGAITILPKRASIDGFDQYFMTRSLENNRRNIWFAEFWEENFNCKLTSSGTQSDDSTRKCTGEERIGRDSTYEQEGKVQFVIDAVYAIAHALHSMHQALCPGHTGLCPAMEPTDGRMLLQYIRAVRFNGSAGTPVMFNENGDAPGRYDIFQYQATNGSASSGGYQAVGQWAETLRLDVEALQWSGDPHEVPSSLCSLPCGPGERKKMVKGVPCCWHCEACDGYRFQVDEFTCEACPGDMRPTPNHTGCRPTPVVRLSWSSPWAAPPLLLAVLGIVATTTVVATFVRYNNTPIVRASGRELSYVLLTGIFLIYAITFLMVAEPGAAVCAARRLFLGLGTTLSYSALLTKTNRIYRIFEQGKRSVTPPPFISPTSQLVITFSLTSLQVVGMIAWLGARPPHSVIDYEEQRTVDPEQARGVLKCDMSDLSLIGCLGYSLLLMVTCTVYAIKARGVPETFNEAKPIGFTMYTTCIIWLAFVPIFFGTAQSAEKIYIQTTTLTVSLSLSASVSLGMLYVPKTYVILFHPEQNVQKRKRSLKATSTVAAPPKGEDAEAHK
Method: as §1

CaSPhmGluR2(27-19) = target: T4, CaSPhmGluR2(27-19) (Homo sapiens, UniProt Q14416); assay: as above; assay type: cell-based; details: 100 uM L-glutamate; Xenopus oocytes; FIG. 6
T4 construct: CaR signal peptide (first 27 amino acids of CaR) (N); expressed in transfected cells; host or cells: Xenopus laevis oocytes injected with RNA (with GIRK1 and GIRK4 RNA)

human CaR = target: T5, human CaR (Homo sapiens, UniProt P41180, R990G); assay: PLC-coupled oocyte assay; assay type: cell-based; details: Xenopus oocytes; FIG. 10B
T5 construct: expressed in transfected cells; host or cells: Xenopus laevis oocytes injected with human CaR RNA (plasmid phPCaR4.0)
T5 sequence (P41180 20-1078 R990G): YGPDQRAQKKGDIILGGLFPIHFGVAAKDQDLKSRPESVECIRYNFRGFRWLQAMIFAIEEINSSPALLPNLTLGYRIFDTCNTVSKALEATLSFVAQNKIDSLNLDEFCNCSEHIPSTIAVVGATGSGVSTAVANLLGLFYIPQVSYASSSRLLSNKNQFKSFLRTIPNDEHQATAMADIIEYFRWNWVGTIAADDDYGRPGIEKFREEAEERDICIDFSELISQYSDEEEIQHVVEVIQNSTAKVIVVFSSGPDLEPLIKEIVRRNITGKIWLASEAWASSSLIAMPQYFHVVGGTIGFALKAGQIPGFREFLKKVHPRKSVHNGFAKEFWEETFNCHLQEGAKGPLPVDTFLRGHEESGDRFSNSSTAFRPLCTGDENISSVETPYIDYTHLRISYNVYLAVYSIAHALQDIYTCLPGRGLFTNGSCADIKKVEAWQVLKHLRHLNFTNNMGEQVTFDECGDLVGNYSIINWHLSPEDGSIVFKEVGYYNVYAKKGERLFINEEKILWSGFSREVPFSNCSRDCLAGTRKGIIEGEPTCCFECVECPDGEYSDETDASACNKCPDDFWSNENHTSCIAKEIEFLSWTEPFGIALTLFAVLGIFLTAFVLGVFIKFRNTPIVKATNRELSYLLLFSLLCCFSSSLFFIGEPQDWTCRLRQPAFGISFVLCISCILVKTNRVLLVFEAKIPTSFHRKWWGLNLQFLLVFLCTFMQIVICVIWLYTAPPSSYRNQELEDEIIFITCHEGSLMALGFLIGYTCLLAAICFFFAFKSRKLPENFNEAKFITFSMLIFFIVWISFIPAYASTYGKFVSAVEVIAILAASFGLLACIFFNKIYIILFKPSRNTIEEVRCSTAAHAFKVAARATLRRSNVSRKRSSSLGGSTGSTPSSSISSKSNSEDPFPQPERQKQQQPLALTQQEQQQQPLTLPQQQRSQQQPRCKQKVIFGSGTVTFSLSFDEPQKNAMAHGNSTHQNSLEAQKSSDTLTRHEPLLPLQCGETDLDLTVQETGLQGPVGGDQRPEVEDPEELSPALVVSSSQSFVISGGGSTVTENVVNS

CaSPhmGluR5(27-22) = target: T6, CaSPhmGluR5(27-22) (Homo sapiens, UniProt P41594); assay: oocyte assay for PLC-coupled receptors (voltage clamp, Cl- current); assay type: cell-based; details: 100 uM L-glutamate; Xenopus oocytes; FIG. 8
T6 construct: CaR signal peptide (first 27 amino acids of CaR) (N); expressed in transfected cells; host or cells: Xenopus laevis oocytes injected with in vitro transcribed RNA
T6 sequence (P41594 with tags, fused parts or gaps): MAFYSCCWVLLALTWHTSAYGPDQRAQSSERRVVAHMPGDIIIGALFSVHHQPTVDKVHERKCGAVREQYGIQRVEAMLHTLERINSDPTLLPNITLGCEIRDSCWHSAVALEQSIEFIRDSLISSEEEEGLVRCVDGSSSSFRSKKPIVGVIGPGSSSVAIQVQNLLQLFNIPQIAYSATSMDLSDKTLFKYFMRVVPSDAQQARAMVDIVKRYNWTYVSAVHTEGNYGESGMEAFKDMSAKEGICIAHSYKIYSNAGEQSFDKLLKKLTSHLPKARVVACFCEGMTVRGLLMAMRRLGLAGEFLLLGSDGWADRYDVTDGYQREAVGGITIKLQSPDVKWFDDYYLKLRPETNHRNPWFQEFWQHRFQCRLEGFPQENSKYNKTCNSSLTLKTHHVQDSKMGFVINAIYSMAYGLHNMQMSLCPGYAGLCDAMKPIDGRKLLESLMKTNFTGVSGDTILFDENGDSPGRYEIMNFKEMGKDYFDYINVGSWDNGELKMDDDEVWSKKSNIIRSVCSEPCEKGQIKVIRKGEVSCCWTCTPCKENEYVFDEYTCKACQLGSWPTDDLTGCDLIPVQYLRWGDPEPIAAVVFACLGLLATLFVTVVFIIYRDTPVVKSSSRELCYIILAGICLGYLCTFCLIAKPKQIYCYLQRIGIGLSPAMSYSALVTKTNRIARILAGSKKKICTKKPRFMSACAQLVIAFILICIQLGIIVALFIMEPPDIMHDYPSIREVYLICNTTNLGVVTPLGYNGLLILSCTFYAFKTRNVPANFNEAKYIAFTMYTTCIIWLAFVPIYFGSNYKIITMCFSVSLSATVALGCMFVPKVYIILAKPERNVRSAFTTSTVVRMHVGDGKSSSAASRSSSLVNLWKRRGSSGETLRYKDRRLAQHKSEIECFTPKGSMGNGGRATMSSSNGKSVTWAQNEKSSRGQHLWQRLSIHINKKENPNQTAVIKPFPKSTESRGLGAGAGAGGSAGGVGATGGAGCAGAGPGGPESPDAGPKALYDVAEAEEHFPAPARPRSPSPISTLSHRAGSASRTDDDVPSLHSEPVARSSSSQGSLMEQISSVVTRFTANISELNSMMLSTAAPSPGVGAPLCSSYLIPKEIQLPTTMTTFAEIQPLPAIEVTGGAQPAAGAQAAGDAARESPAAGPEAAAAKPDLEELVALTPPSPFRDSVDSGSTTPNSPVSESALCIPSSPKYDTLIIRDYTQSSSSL

pmGluR1/CaR chimera = pmGluR1/CaR chimera (Rattus norvegicus, UniProt P23385); details: Xenopus oocytes; compared with rat mGluR1; FIG. 9
pmGluR1/CaR chimera, sequence (P23385 with tags, fused parts or gaps): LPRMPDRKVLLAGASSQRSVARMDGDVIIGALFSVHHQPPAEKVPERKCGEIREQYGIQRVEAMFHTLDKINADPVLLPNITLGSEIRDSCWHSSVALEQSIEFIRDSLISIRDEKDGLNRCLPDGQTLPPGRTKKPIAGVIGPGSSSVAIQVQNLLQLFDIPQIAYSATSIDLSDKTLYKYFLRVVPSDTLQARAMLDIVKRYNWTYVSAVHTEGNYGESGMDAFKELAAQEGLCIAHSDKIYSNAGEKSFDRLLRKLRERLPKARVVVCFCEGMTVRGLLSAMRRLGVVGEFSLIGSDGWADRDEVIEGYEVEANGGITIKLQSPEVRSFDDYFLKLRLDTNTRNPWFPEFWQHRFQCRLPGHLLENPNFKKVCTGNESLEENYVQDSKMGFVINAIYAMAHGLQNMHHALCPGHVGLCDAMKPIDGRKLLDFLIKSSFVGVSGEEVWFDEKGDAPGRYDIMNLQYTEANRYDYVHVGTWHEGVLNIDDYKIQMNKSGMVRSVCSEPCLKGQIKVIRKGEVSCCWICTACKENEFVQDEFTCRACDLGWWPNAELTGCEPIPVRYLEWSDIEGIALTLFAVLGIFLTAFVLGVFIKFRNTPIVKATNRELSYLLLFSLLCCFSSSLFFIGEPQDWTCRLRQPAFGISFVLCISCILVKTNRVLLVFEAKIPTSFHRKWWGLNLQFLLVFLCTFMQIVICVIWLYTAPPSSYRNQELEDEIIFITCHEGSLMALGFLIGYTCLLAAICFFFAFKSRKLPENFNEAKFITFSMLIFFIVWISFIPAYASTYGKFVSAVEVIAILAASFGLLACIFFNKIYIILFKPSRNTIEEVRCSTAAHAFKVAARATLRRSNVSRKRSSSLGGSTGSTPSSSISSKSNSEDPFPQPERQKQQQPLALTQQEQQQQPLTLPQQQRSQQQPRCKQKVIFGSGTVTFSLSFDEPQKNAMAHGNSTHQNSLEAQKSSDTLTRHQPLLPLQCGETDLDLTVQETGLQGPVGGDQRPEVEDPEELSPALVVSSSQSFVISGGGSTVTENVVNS

rat mGluR1 = rat mGluR1 (Rattus norvegicus, UniProt P23385); details: Xenopus oocytes; FIG. 9 and FIG. 10A

| SMILES | activation of the chimeric receptor (CaSPhmGluR7(27-45)) | activation of the chimeric receptor (CaSPhmGluR3(27-33)) | activation of the chimeric receptor (CaSPhmGluR6(27-35)) | activation of the receptor (CaSPhmGluR2(27-19)) | Cl- current in oocytes injected with human CaR RNA (human CaR) | activation of the chimeric receptor (CaSPhmGluR5(27-22)) | receptor response (Cl- currents on release of intracellular Ca2+) (pmGluR1/CaR chimera) | receptor response (Cl- currents on release of intracellular Ca2+) (rat mGluR1) |
| --- | --- | --- | --- | --- | --- | --- | --- | --- |
| N[C@@H](CCC(=O)O)C(=O)O [L-glutamate] | robust activation | activation of the chimeric receptor was seen | Activation of the chimeric receptor | Activation of the receptor | elicits oscillatory increases in Cl— current | Activation of the chimeric receptor | – | – |
| N[C@@H](Cn1oc(=O)[nH]c1=O)C(=O)O [quisqualate] | – | – | – | – | – | – | respond comparably | respond comparably |
